Measurements published in publication PMC3138742 (PLoS ONE, 2011).

Assays:
EGFR = EGFR (Homo sapiens, UniProt P00533); settings: cell-free, means ± SD
Protocol: (§1) The tyrosine kinase activities were determined using enzyme-linked immunosorbant assay (ELISA). The serine/threonine kinase activities were detected by Caliper Mobility Shift Assay on EZ Reader (Caliper Life Sciences, MA) according to the instruction.
(§2) The kinase domain of EGFR, ErbB-2, IGF1R, VEGFR2, FGFR1, PDGFRα, c-Src, c-Met, RON, c-Kit, EphA2 and EphB2 were expressed using the Bac-to-Bac^TM baculovirus expression system (Invitrogen, Carlsbad, CA, USA) and purified on Ni-NTA columns (QIAGEN Inc., Valencia, CA, USA). VEGFR1, PDGFRβ and c-Abl were purchased from Upstate Biotechnology Inc. (Charlottesville, Virginia, USA). […] EGF was purchased from R&D, Minneapolis, […]. Poly(Glu-Tyr)(4:1), the substrate of tyrosine kinase, was from Sigma-Aldrich Corp. St. Louis, MO, USA.
(§3) The tyrosine kinase activities were determined in 96-well ELISA plates (Corning, NY, USA) precoated with 20 μg/mL Poly (Glu,Tyr)4:1. First, 80 μL of 5 μM ATP solution diluted in kinase reaction buffer (50 mM HEPES pH 7.4, 20 mM MgCl2, 0.1 mM MnCl2, 0.2 mM Na3VO4, 1 mM DTT) was added to each well. […] Subsequently, the kinase reaction was initiated by the addition of purified tyrosine kinase proteins diluted in 10 μL of kinase reaction buffer solution. Experiments at each concentration were performed in duplicate. After incubation for 60 min at 37 °C, the plate was washed three times with phosphate buffered saline (PBS) containing 0.1% Tween 20 (T-PBS). Next, 100 μL anti-phosphotyrosine antibody (PY99, 1:500 dilution) diluted in T-PBS containing 5 mg/mL BSA was added. After 30 min incubation at 37 °C, the plate was washed three times as before. Horseradish peroxidase-conjugated goat anti-mouse IgG (100 μL) diluted 1:2000 in T-PBS containing 5 mg/ml BSA was added. The plate was reincubated at 37 °C for 30 min, and then washed with PBS.

Abl = Abl (Homo sapiens, UniProt P00519); settings: cell-free
Protocol: as §1, §2, §3

FGFR1 = FGFR1 (Homo sapiens, UniProt P11362); settings: FGFR1, cell-free
Protocol: as §1, §2, §3

EphB2 = EphB2 (Homo sapiens, UniProt P29323); settings: EphB2, cell-free
Protocol: as §1, §2, §3

PDGFRβ = PDGFRβ (Homo sapiens, UniProt P09619); settings: cell-free
Protocol: as §1, §2, §3

KDR = KDR (Homo sapiens, UniProt P35968); settings: cell-free
Protocol: as §1, §2, §3

EphA2 = EphA2 (Homo sapiens, UniProt P29317); settings: EphA2, cell-free
Protocol: as §1, §2, §3

RON = RON (Homo sapiens, UniProt Q04912); settings: cell-free
Protocol: as §1, §2, §3

c-Kit = c-Kit (Homo sapiens, UniProt P10721); settings: cell-free
Protocol: as §1, §2, §3

PDGFRα = PDGFRα (Homo sapiens, UniProt P16234); settings: cell-free
Protocol: as §1, §2, §3

IGF1R = IGF1R (Homo sapiens, UniProt P08069); settings: cell-free
Protocol: as §1, §2, §3

ErbB2 = ErbB2 (Homo sapiens, UniProt P04626); settings: ErbB2, cell-free; means ± SD
Protocol: as §1, §2, §3

SYK = SYK (Homo sapiens, UniProt P43405); settings: cell-free
Protocol: as §1, §2, §3

Flt-1 = Flt-1 (Homo sapiens, UniProt P17948); settings: Flt-1, cell-free
Protocol: as §1, §2, §3

c-Met = c-Met (Homo sapiens, UniProt P08581); settings: cell-free
Protocol: as §1, §2, §3

c-Src = c-Src (Homo sapiens, UniProt P12931); settings: cell-free
Protocol: as §1, §2, §3

JAK2 = JAK2 (Homo sapiens, UniProt O60674); settings: JAK2, cell-free
Protocol: as §1, §2, §3

Tie2 = Tie2 (Homo sapiens, UniProt Q02763); settings: Tie2, cell-free
Protocol: as §1, §2, §3

Sequence of Abl (P00519 whole entry, species assumed): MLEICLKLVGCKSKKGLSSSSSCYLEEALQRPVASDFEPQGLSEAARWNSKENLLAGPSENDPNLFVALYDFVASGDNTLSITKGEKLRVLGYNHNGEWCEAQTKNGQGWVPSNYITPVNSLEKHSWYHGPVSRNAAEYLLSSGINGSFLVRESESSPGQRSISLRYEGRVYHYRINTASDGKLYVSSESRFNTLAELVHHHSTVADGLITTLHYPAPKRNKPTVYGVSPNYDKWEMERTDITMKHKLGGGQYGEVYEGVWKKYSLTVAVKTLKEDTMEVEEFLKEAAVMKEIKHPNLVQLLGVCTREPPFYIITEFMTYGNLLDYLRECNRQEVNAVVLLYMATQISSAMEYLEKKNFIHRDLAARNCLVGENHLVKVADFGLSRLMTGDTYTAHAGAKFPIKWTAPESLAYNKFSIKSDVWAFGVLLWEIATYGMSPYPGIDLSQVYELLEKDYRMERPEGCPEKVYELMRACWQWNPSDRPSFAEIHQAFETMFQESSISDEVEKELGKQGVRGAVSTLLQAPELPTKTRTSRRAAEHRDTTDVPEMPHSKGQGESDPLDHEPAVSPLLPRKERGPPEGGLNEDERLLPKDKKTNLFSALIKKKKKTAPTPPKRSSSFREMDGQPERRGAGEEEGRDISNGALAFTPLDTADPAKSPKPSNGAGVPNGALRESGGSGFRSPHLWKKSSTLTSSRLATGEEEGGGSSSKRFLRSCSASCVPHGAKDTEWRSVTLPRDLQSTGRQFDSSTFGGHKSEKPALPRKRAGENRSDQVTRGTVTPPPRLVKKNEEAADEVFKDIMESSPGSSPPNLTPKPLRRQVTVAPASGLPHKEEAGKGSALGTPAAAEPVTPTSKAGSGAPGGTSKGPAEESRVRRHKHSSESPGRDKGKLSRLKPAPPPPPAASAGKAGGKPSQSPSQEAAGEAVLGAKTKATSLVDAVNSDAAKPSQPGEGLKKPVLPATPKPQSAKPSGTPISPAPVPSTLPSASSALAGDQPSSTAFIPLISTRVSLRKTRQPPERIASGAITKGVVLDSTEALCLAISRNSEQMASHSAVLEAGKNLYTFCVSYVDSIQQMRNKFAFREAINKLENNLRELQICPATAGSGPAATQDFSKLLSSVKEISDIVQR
Sequence of c-Kit (P10721 589-937 limits assumed): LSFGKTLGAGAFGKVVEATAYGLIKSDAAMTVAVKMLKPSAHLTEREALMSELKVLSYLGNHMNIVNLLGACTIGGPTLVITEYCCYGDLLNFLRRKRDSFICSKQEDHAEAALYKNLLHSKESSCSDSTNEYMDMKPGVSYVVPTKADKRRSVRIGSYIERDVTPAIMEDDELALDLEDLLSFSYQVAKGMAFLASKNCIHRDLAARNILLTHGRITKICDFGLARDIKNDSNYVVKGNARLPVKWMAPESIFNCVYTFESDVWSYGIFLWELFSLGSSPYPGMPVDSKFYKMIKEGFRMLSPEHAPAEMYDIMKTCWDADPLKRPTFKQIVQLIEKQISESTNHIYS
Sequence of KDR (P35968 834-1162 limits assumed): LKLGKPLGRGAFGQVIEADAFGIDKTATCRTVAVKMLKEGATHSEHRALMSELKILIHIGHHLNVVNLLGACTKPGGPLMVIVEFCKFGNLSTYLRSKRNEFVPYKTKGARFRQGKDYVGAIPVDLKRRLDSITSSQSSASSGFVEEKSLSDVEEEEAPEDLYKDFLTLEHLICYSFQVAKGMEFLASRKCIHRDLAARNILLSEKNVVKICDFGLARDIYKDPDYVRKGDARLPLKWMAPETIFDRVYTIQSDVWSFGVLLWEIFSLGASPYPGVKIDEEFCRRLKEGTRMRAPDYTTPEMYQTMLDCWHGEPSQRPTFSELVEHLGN
Sequence of PDGFRβ (P09619 33-1106): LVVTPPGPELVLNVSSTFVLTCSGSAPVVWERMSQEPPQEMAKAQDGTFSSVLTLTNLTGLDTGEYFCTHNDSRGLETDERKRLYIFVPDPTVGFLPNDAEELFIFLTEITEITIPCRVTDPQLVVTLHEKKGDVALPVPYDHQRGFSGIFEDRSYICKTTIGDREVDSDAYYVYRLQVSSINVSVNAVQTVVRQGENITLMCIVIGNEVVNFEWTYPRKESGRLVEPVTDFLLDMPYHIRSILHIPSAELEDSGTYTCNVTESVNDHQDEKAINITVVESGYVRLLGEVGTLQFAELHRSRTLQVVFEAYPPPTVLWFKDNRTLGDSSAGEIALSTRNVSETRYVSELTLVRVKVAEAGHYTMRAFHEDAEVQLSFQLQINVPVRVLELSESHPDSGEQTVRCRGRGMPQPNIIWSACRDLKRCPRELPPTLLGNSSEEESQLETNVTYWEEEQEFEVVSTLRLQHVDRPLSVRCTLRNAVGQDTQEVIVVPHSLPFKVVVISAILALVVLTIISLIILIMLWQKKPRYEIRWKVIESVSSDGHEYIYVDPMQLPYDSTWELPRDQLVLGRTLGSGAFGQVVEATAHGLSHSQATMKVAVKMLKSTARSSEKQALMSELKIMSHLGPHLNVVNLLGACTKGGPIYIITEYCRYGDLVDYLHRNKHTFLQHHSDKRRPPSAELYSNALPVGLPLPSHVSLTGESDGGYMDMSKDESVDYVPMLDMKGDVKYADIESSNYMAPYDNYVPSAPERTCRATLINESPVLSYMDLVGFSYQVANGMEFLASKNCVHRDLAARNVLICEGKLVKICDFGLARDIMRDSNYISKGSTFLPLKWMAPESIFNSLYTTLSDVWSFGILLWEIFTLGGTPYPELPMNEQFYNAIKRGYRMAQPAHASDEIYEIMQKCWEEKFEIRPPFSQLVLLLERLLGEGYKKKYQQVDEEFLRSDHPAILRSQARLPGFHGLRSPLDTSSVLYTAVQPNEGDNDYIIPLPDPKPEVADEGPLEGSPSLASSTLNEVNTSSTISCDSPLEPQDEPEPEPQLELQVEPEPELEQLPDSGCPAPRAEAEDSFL
Sequence of c-Met (P08581 1078-1345 limits assumed): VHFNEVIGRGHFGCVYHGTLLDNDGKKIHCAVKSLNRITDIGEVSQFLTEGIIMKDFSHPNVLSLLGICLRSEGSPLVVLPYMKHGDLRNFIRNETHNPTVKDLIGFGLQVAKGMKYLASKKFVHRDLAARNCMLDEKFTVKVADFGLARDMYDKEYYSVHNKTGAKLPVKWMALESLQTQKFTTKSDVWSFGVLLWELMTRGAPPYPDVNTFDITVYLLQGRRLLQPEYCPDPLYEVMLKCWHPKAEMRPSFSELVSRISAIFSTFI
Sequence of EphB2 (P29323 621-884 limits assumed): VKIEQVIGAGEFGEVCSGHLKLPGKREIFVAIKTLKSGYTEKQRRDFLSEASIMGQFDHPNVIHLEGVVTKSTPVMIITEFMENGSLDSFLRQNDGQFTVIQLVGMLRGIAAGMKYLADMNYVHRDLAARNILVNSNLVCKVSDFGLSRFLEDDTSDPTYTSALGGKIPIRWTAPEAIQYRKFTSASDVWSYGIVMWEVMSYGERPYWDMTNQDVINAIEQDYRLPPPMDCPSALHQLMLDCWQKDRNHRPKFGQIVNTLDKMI
Sequence of c-Src (P12931 270-523 limits assumed): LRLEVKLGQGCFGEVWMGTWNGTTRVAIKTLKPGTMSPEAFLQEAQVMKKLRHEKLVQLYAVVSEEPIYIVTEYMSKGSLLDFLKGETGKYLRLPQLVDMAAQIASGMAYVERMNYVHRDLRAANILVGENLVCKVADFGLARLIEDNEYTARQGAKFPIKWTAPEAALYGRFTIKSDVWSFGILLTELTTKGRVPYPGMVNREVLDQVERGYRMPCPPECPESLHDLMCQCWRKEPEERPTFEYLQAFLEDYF
Sequence of ErbB2 (P04626 720-987 limits assumed): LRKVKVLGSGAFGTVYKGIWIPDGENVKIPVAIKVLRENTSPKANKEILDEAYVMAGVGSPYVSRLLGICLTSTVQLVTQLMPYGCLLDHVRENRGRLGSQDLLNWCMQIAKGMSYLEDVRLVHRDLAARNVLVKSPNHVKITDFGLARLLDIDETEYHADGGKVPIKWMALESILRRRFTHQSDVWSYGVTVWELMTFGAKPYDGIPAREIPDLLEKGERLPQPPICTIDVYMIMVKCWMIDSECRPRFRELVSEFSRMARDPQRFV
Sequence of IGF1R (P08069 999-1274 limits assumed): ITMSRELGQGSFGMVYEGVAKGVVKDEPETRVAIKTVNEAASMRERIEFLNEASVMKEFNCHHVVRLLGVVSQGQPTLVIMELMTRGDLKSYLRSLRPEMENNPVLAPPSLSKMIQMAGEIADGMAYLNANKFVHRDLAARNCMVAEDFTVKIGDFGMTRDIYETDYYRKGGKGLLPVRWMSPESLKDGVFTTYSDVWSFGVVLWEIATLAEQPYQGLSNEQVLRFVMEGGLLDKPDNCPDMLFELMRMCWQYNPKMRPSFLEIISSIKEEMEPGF
Sequence of EphA2 (P29317 613-875 limits assumed): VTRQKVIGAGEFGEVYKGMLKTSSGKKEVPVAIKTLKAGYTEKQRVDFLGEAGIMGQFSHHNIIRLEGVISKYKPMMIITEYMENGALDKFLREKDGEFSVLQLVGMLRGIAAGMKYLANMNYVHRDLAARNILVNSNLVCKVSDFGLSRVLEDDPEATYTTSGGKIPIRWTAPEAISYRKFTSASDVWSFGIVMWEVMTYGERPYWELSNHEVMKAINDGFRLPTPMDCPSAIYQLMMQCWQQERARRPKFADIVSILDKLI
Sequence of EGFR (P00533 712-979 limits assumed): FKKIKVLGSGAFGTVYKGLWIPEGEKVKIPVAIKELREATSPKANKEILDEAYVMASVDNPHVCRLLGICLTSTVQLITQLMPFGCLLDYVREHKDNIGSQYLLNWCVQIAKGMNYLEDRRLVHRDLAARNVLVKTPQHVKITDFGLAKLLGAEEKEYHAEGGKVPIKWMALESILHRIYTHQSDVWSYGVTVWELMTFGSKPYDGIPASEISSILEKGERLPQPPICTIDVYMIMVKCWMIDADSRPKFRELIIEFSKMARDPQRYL

C=CC(=O)Nc1ccc2ncnc(Nc3ccc(OCc4cccc(F)c4)c(Cl)c3)c2c1 [AST1306]
IC50 (EGFR): 0.0005 ± 0.0002 µM | IC50 (Abl): > 10 µM | IC50 (FGFR1): > 10 µM | IC50 (EphB2): > 10 µM | IC50 (PDGFRβ): > 10 µM | IC50 (KDR): > 10 µM | IC50 (EphA2): > 10 µM | IC50 (RON): > 10 µM | IC50 (c-Kit): > 10 µM | IC50 (PDGFRα): > 10 µM | IC50 (IGF1R): > 10 µM | IC50 (ErbB2): 0.003 ± 0.0015 µM | IC50 (SYK): > 10 µM | IC50 (Flt-1): > 10 µM | IC50 (c-Met): > 10 µM | IC50 (c-Src): > 10 µM | IC50 (JAK2): > 10 µM | IC50 (Tie2): > 10 µM
